Assay results taken from US20250195629A1, “SITE-SPECIFIC BRAIN THERAPEUTICS” (William Marsh Rice University, priority 2023, published 2025).

B1: AADC-IKVAV: aromatic-L-amino-acid decarboxylase (AADC) protein fused with short peptide IKVAV (SEQ ID NO: 23); CDS SEQ ID NO: 21 (protein)
chain: MRGSHHHHHHGMASMTGGQQMGRDLYDDDDKDPMNASEFRRRGKEMVDYMANYMEGIEGRQVYPDVEPGYLRPLIPAAAPQEPDTFEDIINDVEKIIMPGVTHWHSPYFFAYFPTASSYPAMLADMLCGAIGCIGFSWAASPACTELETVMMDWLGKMLELPKAFLNEKAGEGGGVIQGSASEATLVALLAARTKVIHRLQAASPELTQAAIMEKLVAYSSDQAHSSVERAGLIGGVKLKAIPSDGNFAMRASALQEALERDKAAGLIPFFMVATLGTTTCCSFDNLLEVGPICNKEDIWLHVDAAYAGSAFICPEFRHLLNGVEFADSFNFNPHKWLLVNFDCSAMWVKKRTDLTGAFRLDPTYLKHSHQDSGLITDYRHWQIPLGRRFRSLKMWFVFRMYGVKGLQAYIRKHVQLSHEFESLVRQDPRFEICVEVILGLVCFRLKGSNKVNEALLQRINSAKKIHLVPCHLRDKFVLRFAICSRTVESAHVQRAWEHIKELAADVLRAEREGGSGSSGGSGGSGGSGIKVAV
modifications: misc_feature 1..1602 Synthetic: AADC-IKVAV

Tested on: c-Fos+ cells in the CPu
Test: c-Fos+ cell count at the CPu after behavior test
Format: in vivo, mouse
Description: To quantify the c-Fos-positive cells related to FIG. 11, the stained coronal sections were initially imaged using a 4× objective in DAPI (nuclei, not shown) and far-red (c-Fos, shown in purple) channels. Within the left striatum region, one or more specific 3×3 binned square areas were selected corresponding to the highest observed AADC fluorescence in the adjacent AADC-stained section. Subsequently, images of these areas were captured using a 40× objective. Corresponding contralateral areas in the right striatum were also captured.
In FIG. 7, we applied the following brightness (white) thresholds for the corresponding channels: 6045 (DAPI, nuclei, not shown), 15,000 (Cy3, D1R), 16,000 (green, D2R), and 6045 (far-red, c-Fos), with a gamma value of 1. In FIG. 11, we applied a Brightness (White) threshold of 6045 for both DAPI (nuclei, not shown) and far-red (c-Fos) channels, with a Gamma value of 1. The images were then overlayed, and the c-Fos+ cells were manually counted. Similarly, the GFAP+ cells were manually counted, as shown in FIG. 15c and FIG. 17, by applying a Brightness (White) threshold of 5686 and a Gamma value of 1 for both the DAPI (nuclei) and far-red (GFAP, purple) channels.
To address potential bias and validate our counting approach, all c-Fos staining sites from mice in FIG. 11 were independently counted by 4 scorers (A. M., Z. H., C. H. and R. J.). C. […]

| Molecule | change in ipsilateral c-Fos-positive cells vs contralateral site (untreated mice or FUS alone, L-DOPA 2 mg/kg i.p.) | increase in ipsilateral c-Fos-positive cells vs contralateral site (RAID-treated mice, FUS+AADC-IKVAV+L-DOPA, counted by A. M. and Z. H.) |
| --- | --- | --- |
| N[C@@H](Cc1ccc(O)c(O)c1)C(=O)O [L-DOPA, reference compound] | no significant changes |  |
| B1 |  | 5.7(±1.8) fold |
